According to patent US20210369768A1, “METAL DI-AMINO ACID CHELATES OR METAL TRI-AMINO ACID CHELATES” (Balchem Corporation, priority 2020, published 2021):
Peptide text beside a SMILES is read from it.

Legend:
Caco-2 cells [1] = experiment: Cellular uptake of magnesium complexes in Caco-2 cells (BioVision colorimetric magnesium uptake assay kit); conditions: Example 12, FIG. 72
Method: (§1) Magnesium uptake colorimetric assay kits were purchased from BioVision (Catalog #385-100). […] HEK-293 (ATCC® CRL-1573TM) cells, Caco-2 (ATCC® HTB-37TM) cells, and Dulbecco's Modified Eagle Medium (ATCC® 30-2002) were purchased from ATCC. Penicillin streptomycin (10,000 U/mL), fetal bovine serum (FBS), and trypsin/EDTA (0.25%) were purchased from Gibco™.
(§2) Caco-2 cells were cultured from Liquid N2 frozen stocks and rapidly thawed to RT using a water bath at 37° C.; cryopreservation media was removed with a micropipette after cells were pelleted via centrifugation for 8-10 minutes at 125 g. Cells were resuspended in 1 mL of room temperature DMEM and cultured in 14 mLs DMEM (total volume of 15 mLs) with a seeding density of 3.6×10^4 cells/cm^2 in a T-75 cm^2 culture flask and left to grow in an incubator at 37° C. and 5% CO2. Cells were sub-cultured at 90% confluency, and sub-culturing occurred a minimum of five times before use in uptake assays. When ready-to-use cultures were at 90% confluency, old DMEM media was pipetted off and 3-4 mLs of trypsin was added—the trypsinized culture flask was placed back in the incubator for 5-10 minutes to detach cells. Once detached, the culture flask was rinsed with 6-8 mLs of fresh DMEM to neutralize the trypsin -cells for uptake assays were counted utilizing a DeNovix CellDrop™. Once counted, cells were pelleted down via centrifugation at 125 g for 8-10 minutes, and the neutralized trypsin-media supernatant was pipetted off. Cells were resuspended in 5 mLs magnesium assay buffer for cellular uptake assay.
(§3) Cellular uptake data was collected at incubation times of 1 hr (required kit incubation time), 4 hrs (the amount of time required for uptake in the GI), and 24 hrs (the amount of time required for a complex to clear the GI).
(§4) Kinetics were evaluated utilizing the slope of the line of uptake of the complex in the Caco-2 cells.

[2] = Stability of the complex in solution via 1H NMR; type: physicochemical; conditions: 1H NMR in D2O
Text: At 72 hrs, an observable upfield shift occurs, which may be due to isomer formation. There is no observable change in proton integration. NMR taken in D2O.

Caco-2 cells [3] = system: Caco-2 cells
Method: as §1, §2, §3, §4

| cellular uptake at 24 hrs (Caco-2 cells [3]) | Compound | cellular uptake in CaCo-2 cell line relative to other magnesium complexes (Caco-2 cells [1]) | stability in solution [2] |
| --- | --- | --- | --- |
|  | magnesium diglycine [MgG2] | relatively linear uptake in the CaCo-2 cell line similar to that of both magnesium chloride (MgCl2) and magnesium bisglycinate (MgBG) |  |
|  | NCC(=O)[O-].NCC(=O)[O-].[Mg+2] [MgBG, magnesium bisglycinate, reference compound] | significantly less cellular uptake than Mg(G3) |  |
| cell saturation | NCC(=O)NCC(=O)NCC(=O)[O-].[Mg+2].[OH-] [Mg(G3), magnesium 2-[[2-[(2-aminoacetyl)amino]acetyl]amino]acetic acid chelate] (H-Gly-Gly-Gly-OH) |  | considerable stability for periods up to 72 hrs |
